According to patent US20210386792A1, “A METHOD FOR INCREASING POPULATION OF SPERMATOGONIAL STEM CELLS” (priority 2018, published 2021):

Tested on: LuECs
Experiment: GDNF ELISA in conditioned media from LuECs
Format: cell-based
Settings: mouse LuECs
Experimental: Testis, lung, or liver ECs were plated (10,000 cells ml^−1) on 12 well dishes coated with 0.1% gelatin and cultured for 24 hours. Conditioned media was harvested at 24 and 48 hours after FGF-2 (2 ng ml^−1, 20 ng ml^−1 and 50 ng ml^−1) treatment and analyzed by ELISA for GDNF (Promega GDNF Emax immunoassay system, #G7621) following the manufacturer's instruction. Statistics was analyzed using Graph Pad Prism. For quantification of Gdnf mRNA, total RNA was isolated from the cells using Direct-zol RNA MiniPrep (Zymo Research) and reverse transcribed using High Capacity cDNA Reverse Transcription Kit (Appliedbiosystems), according to the manufacturer's instructions. All gene expression levels were normalized to GAPDH mRNA levels.
FIG. 2. a. Quantication of GDNF by ELISA in conditioned media from TECs, LuECs and LiECs after treatment with the indicated concentration of FGF-2 for 2 days, n=3. Bar=100 μm. Data are presented as the mean±s.e.m. b. Representative brighteld (BF) and GFP images of 2D cultures of GFP+ SSCs co-cultured with STO cells or TECs plus exogenous GDNF and FGF-2 on days 1 and 8 after seeding. Quantication of stem cell numbers 8 days after co-culture with STO or TECs and the average colony area are shown on the right, n=3. Data are presented as the mean±s.e.m. Bar=100 μm. *P<0.05. c. […]

fibroblast growth factor-2 [FGF-2]
GDNF production in conditioned media of LuECs after FGF-2 treatment: not
